{"source": "patent US20230295201A1", "about": "(Gilead Sciences, Inc., priority 2020, published 2023)", "key": {"[1]": {"tested_on": "HRVc15 replicon", "experiment": "HRVc15 EC50 (replicon luciferase in H1-HeLa cells)", "assay_type": "cell-based", "details": "48 hrs", "protocol": "(§1) First, HRV replicon RNA is prepared. 5 ug of DNA Template (HRVc15 or HRVc25) is linearized with 2 μL of MluI enzyme in NEB buffer-3 in a final volume of 25 μL for 3 hours at 37° C. Following incubation, linearized DNA is purified on a PCR purification column and the following in vitro transcription is performed using the following conditions: 10 μL of RiboMAX Express T7 2× buffer, 1-8 μL of linear DNA template (1 μg), 0-7 μL nuclease free water, 2 μL enzyme mix T7 express. The final volume of 20 μL is mixed and incubated at 37° C. for 30 min. Following incubation, 1 μL of RQ1 RNase free DNase is added and the mixture is incubated at 37° C. for 15 min. The resulting RNA is then purified with the MegaClear Kit (Gibco Life Technologies cat #11835-030) and is eluted two times with 50 μL of elution buffer at 95° C. […] Replicon activity is then measured by a Renilla-Glo Luciferase Assay system. Prior to signal quantification, plates are removed from incubators and are allowed to equilibrate to 25° C. after 50 uL is removed from each well. […] Plates are then incubated for 20 min at 25° C. under gentle agitation and luciferase signal are determined with a 0.1 second detection setting using an EnVision luciferase quantification reader."}, "[2]": {"tested_on": "HRVc25 replicon", "experiment": "HRVc25 EC50 (replicon luciferase in H1-HeLa cells)", "assay_type": "cell-based", "details": "48 hrs", "protocol": "as §1"}}, "note": "pEC50: −log10 of the molar value.", "data": [{"smiles": "C[C@H](N[P@](=O)(OC[C@@]1(C#N)O[C@@H](c2ccc3c(N)ncnn23)[C@H](O)[C@@H]1O)Oc1ccccc1)C(=O)OC1CCCCC1", "note": "(single isomer, unassigned) [Example 6]", "values": [{"measurement": "pEC50", "setting": "[1]", "value": 8.05}, {"measurement": "pEC50", "setting": "[2]", "value": 8.15}]}]}
